A word on the IC50: it is the concentration that gives 50% inhibition.

Two compounds from PMC12668308, “A Novel Antimalarial Agent that Inhibits Protein Synthesis in Plasmodium falciparum” (Angewandte Chemie (International Ed. in English), 2025) can be followed below.

Experiment [1] has as its system laboratory-selected Dd2 strains. The experiment in a line: [3H]-hypoxanthine incorporation assay. Type of experiment: cell-based. As to conditions: Plasmodium falciparum, DD2, read-out: IC50 against the laboratory-selected Dd2 strains. As to the method: To determine potential cross resistance against compound 31 in parasites harboring mutations that confer resistance to current antimalarials, its activity was assessed against drug‐resistant field isolates as previously described. […] A cross‐resistance was considered when there was more than a 10‐fold shift in the IC50 relative to the NF54 strain. […] Because of this, 31 was tested against laboratory‐selected Dd2 strains, which contained additional resistance variants to preclinical and clinical drug candidates.
P. falciparum asexual blood stage parasites were cultured in human red blood cells (RBC, Blutspende SRK, Zurich) at a hematocrit of 5% in RPMI 1640 medium. […] Parasites were harvested on a glass-fiber filter with a Microbeta FilterMate cell harvester (Perkin Elmer, Waltham, USA) and radioactivity was counted using a MicroBeta2 liquid scintillation counter (Perkin Elmer, Waltham, US). The results were recorded, processed by subtraction of the mean background signal obtained from the uninfected RBC controls and expressed as percentage of untreated controls. The fifty percent inhibitory concentration (IC50) was calculated by using nonlinear, four parameter (variable slope) curve fitting as described ^[33^] after importing into GraphPad Prism (version 8.3.0).

Experiment [2] relates to Dd2b2^pfmdr1 K1065N. Type of experiment: cell-based, Plasmodium falciparum. As to conditions: Dd2b2^pfmdr1 K1065N vs Dd2b2^WT. As to the method: ^[a] 72-h [^3H] hypoxanthhine incorporation assay; Data is expressed as mean±s.d. The assay was performed in three independent biological experiments, each in biological duplicates
P. falciparum asexual blood stage parasites were cultured in human red blood cells (RBC, Blutspende SRK, Zurich) at a hematocrit of 5% in RPMI 1640 medium. The RPMI 1640 medium (ThermoFisher Scientific #51800−043) was supplemented with the following: 24 mM NaHCO3 (pH 7.3, Sigma-Aldrich #31437−500G-R), 25 mM Hepes (Sigma-Aldrich #H4034−500G), 0.36 mM hypoxanthine (Sigma-Aldrich # H9377−25G), 100 µg mL^-1 neomycin (Sigma-Aldrich #N6386−100G) and 0.5% Albumax II (Thermo Fisher #11021−045). Additionally, 2 mM choline chloride (279 mg/L, Sigma-Aldrich #C7527−100G) was added to the culture to block the induction of sexual commitment as described. ^[31^] The RPMI 1640 medium and components were dissolved in water (Milli-Q purified), stirred for at least 3 h, and then sterile filtered (0.22 μm pore size) with a bottle top filter (Corning # 431118). Parasite cultures were maintained in an atmosphere of 3% O2, 4% CO2, and 93% N2 in air-tight chambers at 37 °C. The [^3H]-hypoxanthine incorporation assay was used to test compound activity in the specific parasite lines as described.^[32^] Briefly, compounds were dissolved in DMSO (10 mM) and diluted in a hypoxanthine-free culture medium. A limiting dilution was performed over a 64-fold range (6-step twofold dilution) in a 96-well plate in duplicates. For every starting concentration, a limiting dilution was performed over a 64-fold range (6-step twofold dilution) in a 96-well plate in two biological duplicates. Parasites were added at 100 µL to each well containing the compound to obtain a final parasitemia of 0.3% and haematocrit of 1.25%. The plates were incubated for 48 h before 0.25 µCi of [^3H]-hypoxanthine was added per well for an additional 24 h. Parasites were harvested on a glass-fiber filter with a Microbeta FilterMate cell harvester (Perkin Elmer, Waltham, USA) and radioactivity was counted using a MicroBeta2 liquid scintillation counter (Perkin Elmer, Waltham, US). The results were recorded, processed by subtraction of the mean background signal obtained from the uninfected RBC controls and expressed as percentage of untreated controls. The fifty percent inhibitory concentration (IC50) was calculated by using nonlinear, four parameter (variable slope) curve fitting as described ^[33^] after importing into GraphPad Prism (version 8.3.0).

For experiment [3], the system named is Plasmodium RESA N-terminal domain-containing protein (W7KFM4). The experiment in a line: iSPP profiling, P. falciparum lysate. The format is binding, Plasmodium falciparum. Particulars: 100 µM compound 34. As to the method: (§1) P. falciparum NF54 lysates were extracted as described in ^[26^] . The parasite asynchronous culture was extracted once 3-5% parasitemia was reached. Saponin lysis was done as described in 2.2.10. Once the parasite pellet was obtained, 2.5 volumes of ice-cold lysis buffer (50 mM Tris/HCl pH 7.5 (Avantor), 5% glycerol (Sigma-Aldrich), 150 mM NaCl (Carl Roth), 1.5 mM MgCl2 (Sigma-Aldrich), 1 mM DTT (Carl Roth), 0.8% IGEPAL CA-630 (Sigma-Aldrich), 1X Halt Protease and Phosphatase Inhibitor-Cocktails EDTA-free (Thermo Fisher Scientific)) was added to the parasite pellet. The lysate solution was subjected to three cycles of flash freeze-thaw with liquid nitrogen and ddH2O at RT. The lysates were centrifuged at 20,000 g for 20 minutes at 4 °C. The soluble protein fraction (supernatant) was collected and the protein content was quantified using the BCA assay (Pierce™ BCA Protein Assay Kit, Thermo Fisher Scientific). The lysate was stored at -80 °C until further use.
(§2) The P. falciparum lysate was thawed on ice and diluted to 0.8 mg/mL. The lysate was aliquoted, and each aliquot was incubated with either a vehicle control (DMSO), 34 (dissolved in DMSO), or varying concentrations of 31 (dissolved in DMSO) at 0.01 µM, 0.1 µM, 10 µM, 50 µM, and 100 µM. Subsequently, the samples were incubated at room temperature for 30 minutes using a rotating mixer. After distribution into a 96-well plate, the samples were treated with increasing concentrations of A.E.A. (v/v) ranging from 14% to 28% (14, 16, 18, 20, 22, 24, 26, and 28%). Following a 20-minute incubation at 37°C with shaking at 750 rpm, the samples were centrifuged at 4400 g for 35 minutes to remove precipitated proteins. The soluble fractions were then pooled in equal volumes into a single sample using the Bravo Automated Liquid Handling Platform. The pooled samples were subsequently prepared for LC-MS/MS analysis.
(§3) The raw LFQ-DIA intensity values of biological replicates across all conditions were normalized to the median abundance using Excel. The normalized values were then log2 transformed in Perseus (v2.0.10.0).^[58^] Missing values were imputed from a normal distribution (width 0.3, down shift 1.5), and p-values were obtained using a two-sample t-test over replicates with a permutation-based false discovery rate correction (FDR 0.05). Volcano plots were generated in RStudio using the EnhancedVolcano package (v. 1.20.0), ^[59^] plotting proteins by statistical significance (y-axis: –Log10 p-value) versus the magnitude of change (x-axis: log2 fold change of protein intensities for each compound condition relative to the vehicle control). The heatmap was generated in Perseus (v2.0.10.0). Dose-dependent curves were generated using normalized protein intensity values, expressed as a ratio to the vehicle control. Plots were created in GraphPad Prism (v8.3.0) using a nonlinear regression model.

Experiment [4] deals with Stevor (W7K9U2). The experiment in a line: iSPP profiling, P. falciparum lysate. As to conditions: 100 µM compound 34. Type of experiment: binding, Plasmodium falciparum. As to the method: as §1, §2, §3
In experiment [5] the test system is WD repeat-containing protein 82 (W7K1H5). The experiment in a line: iSPP profiling, P. falciparum lysate. The format is binding, Plasmodium falciparum. Particulars: 100 µM compound 34. As to the method: as §1, §2, §3

Take `CN1CCN(Cc2ccc(O)c(NC(=O)c3cccc(Oc4cc(C(F)(F)F)ccn4)c3)c2)CC1` [Compound 31, N-(2-hydroxy-5-((4-methylpiperazin-1-yl)methyl)phenyl)-3-((4-(trifluoromethyl)pyridin-2-yl)oxy)benzamide]: the IC50 in experiment [1] lay in the range of 2.4 to 6.6 nM. In addition, the “IC50 fold shift relative to parental clone” value in experiment [2] was 20.2.
Take `O=C(Nc1cc(CN2CCOCC2)ccc1F)c1cccc(Oc2cc(C(F)(F)F)ccn2)c1` [Compound 34, N-(2-Fluoro-5-(morpholinomethyl)phenyl)-3-((4-(trifluoromethyl)pyridin-2-yl)oxy)benzamide]: the log2FC in experiment [3] is listed as 0.3623; in experiment [4], 0.3642; in experiment [5], -0.6516.
